{
  "source": "paper PMC10098062",
  "about": "(Molecular Plant Pathology, 2023)",
  "biological_target": "T1, SstF (SFN-sensing transcription factor, LysR family) (Xanthomonas campestris, UniProt Q8PAP2)",
  "T1 sequence (Q8PAP2 1-344)": "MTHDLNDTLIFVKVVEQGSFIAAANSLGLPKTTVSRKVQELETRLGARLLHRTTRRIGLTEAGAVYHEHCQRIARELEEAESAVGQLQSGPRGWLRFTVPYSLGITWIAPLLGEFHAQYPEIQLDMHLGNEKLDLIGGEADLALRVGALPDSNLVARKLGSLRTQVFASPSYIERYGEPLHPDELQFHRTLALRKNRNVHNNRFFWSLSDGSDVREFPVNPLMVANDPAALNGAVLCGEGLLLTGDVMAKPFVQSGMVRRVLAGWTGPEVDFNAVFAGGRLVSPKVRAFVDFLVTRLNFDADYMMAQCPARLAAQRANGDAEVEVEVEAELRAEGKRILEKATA",
  "assay": "SPR",
  "type": "binding",
  "data": [
    {"smiles": "C[S+]([O-])CCCCN=C=S", "note": "(stereo not shown) [SFN, Sulforaphane]", "values": [
      {"measurement": "Kd", "value": 17.3, "unit": "nM"}
    ]}
  ]
}
